Marks after values point to notes of the source that are not given here.
What was measured:
[1] = test system: NNRTI-resistant strain K103N+Y181C (RES056); details: MT-4 cells
WT HIV-1 (IIIB) = details: MT-4 cells
in vitro = details: human
WT HIV-1 (NL4-3) = assay: Anti-HIV-1 activity against wild-type NL4-3 in TZM-bl cell lines

Row | SMILES | SI RES056 (CC50/EC50) [1] | SI IIIB (CC50/EC50) (WT HIV-1 (IIIB)) | CC50 (in vitro) [nM] | SI (CC50/EC50) NL4-3 (WT HIV-1 (NL4-3))
1 | Cc1cc(C#N)cc(C)c1Oc1nc(NC2CCN(Cc3ccc(S(C)(=O)=O)cc3)CC2)nc2c1CCCC2 [13e3, 3,5-Dimethyl-4-((2-((1-(4-(methylsulfonyl)benzyl)piperidin-4-yl)amino)-5,6,7,8-tetrahydroquinazolin-4-yl)oxy)benzonitrile] | >4032 | >33333 |  | 
2 | Cc1cc(C#N)cc(C)c1Oc1nc(NC2CCN(Cc3ccncc3)CC2)nc2c1SCC2 [13a4, 3,5-Dimethyl-4-((2-((1-(pyridin-4-ylmethyl)piperidin-4-yl)amino)-6,7-dihydrothieno[3,2-d]pyrimidin-4-yl)oxy)benzonitrile] | ≥2305 | ≥40104 |  | 
3 | Cc1cc(C#N)cc(C)c1Oc1nc(N[C@@H]2CCN(Cc3ccc(C(N)=O)cc3)C2)nc2ccsc12 [8c2, (R)-4-((3-((4-(4-Cyano-2,6-dimethylphenoxy)thieno[3,2-d]-pyrimidin-2-yl)amino)pyrrolidin-1-yl)methyl)benzamide] |  |  | > 250 | 
4 | Cc1cc(C#N)cc(C)c1Oc1nc(NC2CCN(Cc3ccc(C(N)=O)cc3)CC2)nc2c1SCCC2 [13f2, 4-((4-((4-(4-Cyano-2,6-dimethylphenoxy)-7,8-dihydro-6H-thiopyrano[3,2-d]pyrimidin-2-yl)amino)piperidin-1-yl)methyl)benzamide] | >476 | >14767 |  | 
5 | Cc1cc(C#N)cc(C)c1Oc1nc(NC2CCCN(Cc3ccc(S(N)(=O)=O)cc3)CC2)nc2ccsc12 (stereo not drawn) [8a1, 4-((4-((4-(4-Cyano-2,6-dimethylphenoxy)thieno[3,2-d]-pyrimidin-2-yl)amino)azepan-1-yl)methyl)benzenesulfonamide] |  |  |  | >100
6 | Cc1cc(C#N)cc(C)c1Oc1nc(N[C@H]2CCN(Cc3cccc(C(N)=O)c3)C2)nc2ccsc12 [8d3, (S)-3-((3-((4-(4-Cyano-2,6-dimethylphenoxy)thieno[3,2-d]-pyrimidin-2-yl)amino)pyrrolidin-1-yl)methyl)benzamide] |  |  |  | X1^d
7 | Cc1cc(C#N)cc(C)c1Oc1nc(NC2CC3CCC(C2)N3Cc2ccc(C(N)=O)cc2)nc2ccsc12 (stereo not drawn) [8b2, 4-((3-((4-(4-Cyano-2,6-dimethylphenoxy)thieno[3,2-d]-pyrimidin-2-yl)amino)-8-azabicyclo[3.2.1]octan-8-yl)methyl)benzamide] |  |  |  | X1^d
8 | Cc1cc(C#N)cc(C)c1Oc1nc(NC2CCN(Cc3ccncc3)CC2)nc2c1CCC2 [13d4, 3,5-Dimethyl-4-((2-((1-(pyridin-4-ylmethyl)piperidin-4-yl)amino)-6,7-dihydro-5H-cyclopenta[d]pyrimidin-4-yl)oxy)benzonitrile] | >5020 | >147059 |  | 
9 | Cc1cc(C#N)cc(C)c1Oc1nc(NC2CCN(Cc3ccc(S(N)(=O)=O)cc3)CC2)nc2c1CCCC2 [13e1, 4-((4-((4-(4-Cyano-2,6-dimethylphenoxy)-5,6,7,8-tetrahydroquinazolin-2-yl)amino)piperidin-1-yl)methyl)benzenesulfonamide] | >342 | >37879 |  | 
10 | Cc1cc(C#N)cc(C)c1Oc1nc(NC2CCN(Cc3ccc(C(N)=O)cc3)CC2)nc2c1CCC2 [13d2, 4-((4-((4-(4-Cyano-2,6-dimethylphenoxy)-6,7-dihydro-5H-cyclopenta[d]pyrimidin-2-yl)amino)piperidin-1-yl)methyl)benzamide] | >1448 | >40984 |  | 
11 | Cc1cc(C#N)cc(C)c1Oc1nc(NC2CC3CCC(C2)N3Cc2cccc(C(N)=O)c2)nc2ccsc12 (stereo not drawn) [8b3, 3-((3-((4-(4-Cyano-2,6-dimethylphenoxy)thieno[3,2-d]-pyrimidin-2-yl)amino)-8-azabicyclo[3.2.1]octan-8-yl)methyl)benzamide] |  |  |  | X1^d
12 | Cc1cc(C#N)cc(C)c1Oc1nc(NC2CCN(Cc3ccc(S(C)(=O)=O)cc3)CC2)nc2c1SCCC2 [13f3, 3,5-Dimethyl-4-((2-((1-(4-(methylsulfonyl)benzyl)piperidin-4-yl)amino)-7,8-dihydro-6H-thiopyrano[3,2-d]pyrimidin-4-yl)oxy)benzonitrile] | ≥34.6 | ≥872 |  | 
13 | Cc1cc(C#N)cc(C)c1Oc1nc(NC2CC3CCC(C2)N3Cc2ccc(S(C)(=O)=O)cc2)nc2ccsc12 (stereo not drawn) [8b4, 3,5-Dimethyl-4-((2-((8-(4-(methylsulfonyl)benzyl)-8-azabicyclo[3.2.1]octan-3-yl)amino)thieno[3,2-d]pyrimidin-4-yl)oxy)benzonitrile] |  |  |  | X1^d
14 | Cc1cc(C#N)cc(C)c1Oc1nc(NC2CCN(Cc3cccc(C(N)=O)c3)CC2)nc2c1SCC2 [13a6, 3-((4-((4-(4-Cyano-2,6-dimethylphenoxy)-6,7-dihydrothieno[3,2-d]pyrimidin-2-yl)amino)piperidin-1-yl)methyl)benzamide] | ≥355 | ≥8048 |  | 
15 | Cc1cc(C#N)cc(C)c1Oc1nc(NC2CCN(Cc3ccc(NS(C)(=O)=O)cc3)CC2)nc2c1CSC2 [13b5, N-(4-((4-((4-(4-Cyano-2,6-dimethylphenoxy)-5,7-dihydrothieno[3,4-d]pyrimidin-2-yl)amino)piperidin-1-yl)methyl)phenyl)methanesulfonamide] | >42 | >19670 |  | 
16 | Cc1cc(C#N)cc(C)c1Oc1nc(NC2CCN(Cc3ccc(N)cc3)CC2)nc2c1CSC2 [13b4, 4-((2-((1-(4-Aminobenzyl)piperidin-4-yl)amino)-5,7-dihydrothieno[3,4-d]pyrimidin-4-yl)oxy)-3,5-dimethylbenzonitrile] | >364 | >30377 |  | 
17 | Cc1cc(C#N)cc(C)c1Oc1nc(NC2CC3CCC(C2)N3Cc2ccc(S(N)(=O)=O)cc2)nc2ccsc12 (stereo not drawn) [8b1, 4-((3-((4-(4-Cyano-2,6-dimethylphenoxy)thieno[3,2-d]-pyrimidin-2-yl)amino)-8-azabicyclo[3.2.1]octan-8-yl)methyl)benzenesulfonamide] |  |  |  | X1^d
18 | Cc1cc(C#N)cc(C)c1Oc1nc(NC2CCCN(Cc3ccc(C(N)=O)cc3)CC2)nc2ccsc12 (stereo not drawn) [8a2, 4-((4-((4-(4-Cyano-2,6-dimethylphenoxy)thieno[3,2-d]-pyrimidin-2-yl)amino)azepan-1-yl)methyl)benzamide] |  |  |  | X1^d
19 | Cc1cc(C#N)cc(C)c1Oc1nc(NC2CCN(Cc3ccc([N+](=O)[O-])cc3)CC2)nc2c1COC2 [13c5, 3,5-Dimethyl-4-((2-((1-(4-nitrobenzyl)piperidin-4-yl)amino)-5,7-dihydrofuro[3,4-d]pyrimidin-4-yl)oxy)benzonitrile] | ≥22 | ≥1497 |  | 
20 | Cc1cc(C#N)cc(C)c1Oc1nc(NC2CC3CCC(C2)N3Cc2ccncc2)nc2ccsc12 (stereo not drawn) [8b5, 3,5-Dimethyl-4-((2-((8-(pyridin-4-ylmethyl)-8-azabicyclo-[3.2.1]octan-3-yl)amino)thieno[3,2-d]pyrimidin-4-yl)oxy)benzonitrile] |  |  |  | X1^d
21 | Cc1cc(C#N)cc(C)c1Oc1nc(NC2CCN(Cc3ccc(C(N)=O)cc3)CC2)nc2c1CCCC2 [13e2, 4-((4-((4-(4-Cyano-2,6-dimethylphenoxy)-5,6,7,8-tetrahydroquinazolin-2-yl)amino)piperidin-1-yl)methyl)benzamide] | >799 | >38709 |  | 
